Earlier results as cited in patent publication EP4656183A1, “TIRZEPATIDE COMPOSITIONS AND PREPARATION METHOD” (Galenicum Health SLU, priority 2024, dated 2025).

Details: buffer; several values = successive pKa values

pKa: ~ 7.5
Structure (SMILES): O=S(=O)(O)CCN1CCN(CCO)CC1 [HEPES]
